System: Trichoderma pseudokoningii (ATCC #26801), Aureobasidium pullulans (ATCC #9348), and a mixture of Aspergillus niger (ATCC #6275) and Penicillium funiculosum …
Test: ASTM D4445-10 cumulative fungal growth of all three examined organisms and Synergy Index
Type: cell-based
Conditions: for Σ Fungal Growth: cumulative score of the three sets of fungi; for % of Water-Only Control: Σ fungal growth normalized to water-only control
Description: (§1) Radiata pine lumber was machined to specimens with size of 7 mm by 20 mm in cross section and 70 mm long. Solutions prepared as described above were used to treat the machined Radiata pine specimens. The treatment was carried out in a 600 mL beaker. Two unused test pieces were placed on the bottom of the beaker, and the specimens, four in a layer, were placed on the previous layers until all the treatment replicates were included. The specimens were held down with a finger bearing down on a watch glass and submerged in treating solution for 15 seconds. After 15 seconds, the beaker was drained but with specimens still held down, and then was tightly covered with a piece of plastic sheet to prevent drying and was stored overnight. Similarly, untreated control specimens were treated with water.
(§2) One day after treatment, duplicate wood specimens from the same treatment group were tested according to ASTM D4445-10 methodology. The wood specimens were checked for inhibition against sapstain fungi and molds Trichoderma pseudokoningii (ATCC #26801), Aureobasidium pullulans (ATCC #9348), and a mixture of Aspergillus niger (ATCC #6275) and Penicillium funiculosum (ATCC #11797). This method is described below:
(1) Placed duplicate wood specimens on top of polyester mesh and laid on a stack of four (4) filter paper squares (approximately 2 inches by 2.5 inches) presoaked in 5 mL sterile DI water.
(2) Prepared fungal mixture from freshly grown slants of each test organism.
(3) Added 2 mL of DI water and 0.1% Tween 20 to the slant and inverted to mix.
(4) Poured the concentrate into a total volume of 16 mL.
(5) Enumerated the stock via hemocytometer and adjusted to […] with additional DI water.
(6) Inoculated wood specimens via applying 0.25 mL of one of the three separate fungal suspensions to the top of the wood and distributing evenly on the surface with an L-spreader.
(7) Placed inoculated wood specimens in a humidity chamber for one month at 95% or larger relative humidity and 28° C.
(8) Rated wood specimens with a rating from “0” (No Growth) to “5” (Complete Growth).
In order to show more directly the possible synergy in the invention, the results are presented by applying the Synergy Index (S.I.), which is analyzed using the following equation:
FGA=Cumulative fungal growth scores of all three examined organisms of compound […], acting alone
FGA′=Cumulative fungal growth scores of all three examined organisms of compound […], in the mixture
FGB=Cumulative fungal growth scores of all three examined organisms of compound […], acting alone
FGB′=Cumulative fungal growth scores of all three examined organisms of compound […], in the mixture
When SI is greater than 1, antagonism is indicated. […] When SI equals to 1, the action of biocides is additive.
as §1, with “treat” for “treat the”
as §2, with “D4445-10(2019)” for “D4445-10”, “This method is described below:” left out

[1] = 2400 ppm treatment solution, Example 2
[2] = 2400 ppm treatment solution, Example 3
[3] = 4800 ppm treatment solution, Example 2

Molecule | Σ Fungal Growth [1] | % of Water-Only Control [1] [%] | Σ Fungal Growth [2] | % of Water-Only Control [2] [%] | Σ Fungal Growth [3] | % of Water-Only Control [3] [%]
didecyl bis(hydroxyethyl) ammonium borate [DPAB] | 10.8 | 77.5 | 7.6 | 58.46 | 7.6 | 55.0
CCCCNC(=O)OCC#CI [IPBC, 3-iodo-2-propynyl butyl carbamate] | 2.6 | 18.9 | 3.8 | 29.23 | 2.8 | 19.8

Source: US20220161456A1, “S[…] PRESERVATIVE COMPOSITION COMPRISING POLYMERIC BETAINE AND CARBAMATE” (Troy Corporation, priority 2019, published 2022)
